In assay [1] the test system is Candida albicans. Put plainly: Antifungal activity against Candida albicans MTCC 277 after 48 hrs by NCCLS protocol based method. It counts as functional. To be noted: MTCC 277, 48 h.
Assay [2] has as its system Aspergillus niger. Kind of assay: Antifungal activity against Aspergillus niger NCIM 545 after 48 hrs by NCCLS protocol based method. The assay is classed as functional. Particulars: NCIM 545, 48 h.
Assay [3] concerns Escherichia coli. Kind of assay: Antimicrobial activity against Escherichia coli ATCC 25922 after 48 hrs by NCCLS protocol based method. It counts as functional. Particulars: ATCC 25922, 48 h.
Assay [4] relates to Bacillus subtilis. Kind of assay: Antimicrobial activity against Bacillus subtilis NCIM 2250 after 48 hrs by NCCLS protocol based method. The assay is classed as functional. Particulars: NCIM 2250, 48 h.
The subject of a further assay is MDA-MB-231. Kind of assay: Growth inhibition of human MDA-MB-231 cells. The assay is classed as functional.
The test system of a further assay is PANC-1. Kind of assay: Growth inhibition of human PANC1 cells. The assay is classed as functional.
In the next assay the test system is SiHa. Kind of assay: Growth inhibition of human SiHa cells. The assay is classed as functional.
The next assay concerns Priestia megaterium. Kind of assay: Antimicrobial activity against Bacillus megaterium. The assay is classed as functional.
Assay [5] concerns Bacillus subtilis. Kind of assay: Antimicrobial activity against Bacillus subtilis. The assay is classed as functional.
Assay [6] has as its system Escherichia coli. Put plainly: Antimicrobial activity against Escherichia coli. It counts as functional.
A further assay deals with Micrococcus luteus. Put plainly: Antibacterial activity against Micrococcus luteus. The assay is classed as functional.
Another assay relates to Salmonella typhimurium. Put plainly: Antimicrobial activity against Salmonella typhimurium. The assay is classed as functional, Salmonella enterica subsp. enterica serovar Typhimurium. Particulars: Salmonella enterica.
The test system of assay [7] is Candida albicans. Kind of assay: Antifungal activity against Candida albicans assessed as zone of inhibition at 50 ug/ml. The assay is classed as functional. Particulars: read-out: IZ.
The test system of another assay is Staphylococcus aureus. Kind of assay: Antimicrobial activity against Staphylococcus aureus assessed as zone of inhibition at 50 ug/ml. It counts as functional. Particulars: read-out: IZ.
In assay [8] the test system is Aspergillus niger. Put plainly: Antifungal activity against Aspergillus niger assessed as zone of inhibition at 50 ug/ml. To be noted: read-out: IZ. It counts as functional.
The test system of assay [9] is Escherichia coli. Kind of assay: Antimicrobial activity against Escherichia coli assessed as zone of inhibition at 50 ug/ml. To be noted: read-out: IZ. It counts as functional.

Converted amounts (≈) assume the structure as drawn.

For orientation: MIC means the lowest concentration that inhibits growth of the organism. Low values mean a more susceptible organism, high ones a less susceptible organism. Consider `CCOC(=O)C(C#N)C(c1cc2c(OC)cccc2n2nnnc12)P(=O)(OCC)OCC` (stereo unspecified), for which the MIC against Candida albicans [1], in the assay with Aspergillus niger [2], against Escherichia coli [3] and with Bacillus subtilis [4] was 10 to 20 µg/mL (≈ 21.7 to 43.3 µM) in each case.
What is called GI50 is the concentration giving 50% growth inhibition. As for `CCn1cc(C(=O)O)c(=O)c2cnc(N3CCN(C(=O)CCSc4nnnn4-c4ccc(Br)cc4)CC3)nc21`, the GI50 in the assay on MDA-MB-231, in the assay on PANC-1 and in the assay on SiHa was 70 to 220 nM each time.
On to `CCOC(=O)C(C#N)C(c1cc2ccccc2n2nnnc12)P(=O)(OCC)OCC` (stereo unspecified), for which the MIC against Candida albicans [1], in the assay with Aspergillus niger [2], in the assay on Escherichia coli [3] and with Bacillus subtilis [4] was 10 to 20 µg/mL (≈ 23.2 to 46.4 µM) in each case.
Turning to `CCn1nnnc1SCCC(=O)N1CCN(c2cc3c(cc2F)c(=O)c(C(=O)O)cn3C2CC2)CC1`, the GI50 in the assay with MDA-MB-231, in the assay on PANC-1 and in the assay with SiHa was at most 1000 nM each time. Also, the MIC in the assay with Priestia megaterium, in the assay with Bacillus subtilis [5], in the assay on Escherichia coli [6], against Micrococcus luteus and in the assay on Salmonella typhimurium was 15.6 µg/mL (≈ 30.3 µM) each time.
In the case of `CCOC(=O)C(C#N)C(c1cc2c(C)cccc2n2nnnc12)P(=O)(OCC)OCC` (stereo unspecified), the MIC against Candida albicans [1], in the assay on Aspergillus niger [2], in the assay with Escherichia coli [3] and in the assay on Bacillus subtilis [4] was 10 to 20 µg/mL (≈ 22.5 to 44.9 µM) throughout.
Consider `O=C(/C=C/c1ccccc1)n1nnnc1-c1ccccc1`, for which the zone of inhibition at 50 µg/mL in the assay with Candida albicans [7], with Staphylococcus aureus, in the assay with Aspergillus niger [8] and with Escherichia coli [9] was 8 to 15 mm in each case.
Regarding `COc1cc(-n2nnnc2SCCC(=O)N2CCN(c3cc4c(cc3F)c(=O)c(C(=O)O)cn4C3CC3)CC2)cc(OC)c1OC`, the GI50 in the assay with MDA-MB-231, with PANC-1 and with SiHa was at most 1000 nM each time. Further, the MIC against Priestia megaterium, with Bacillus subtilis [5], with Escherichia coli [6], in the assay on Micrococcus luteus and in the assay on Salmonella typhimurium was 15.6 µg/mL (≈ 23.9 µM) in each case.
Regarding `Cc1ccc(/C=C/C(=O)n2nnnc2-c2ccccc2)cc1`, the zone of inhibition at 50 µg/mL in the assay with Candida albicans [7], with Staphylococcus aureus, with Aspergillus niger [8] and in the assay on Escherichia coli [9] was 8 to 15 mm each time.
With `O=C(/C=C/c1ccc(Br)cc1)n1nnnc1-c1ccccc1`, the zone of inhibition at 50 µg/mL with Candida albicans [7], in the assay on Staphylococcus aureus, with Aspergillus niger [8] and with Escherichia coli [9] was 8 to 15 mm throughout.
As for `O=C(O)c1cn(C2CC2)c2cc(N3CCN(C(=O)CCSc4nnnn4-c4ccc(F)c(F)c4F)CC3)c(F)cc2c1=O`, the GI50 in the assay with MDA-MB-231, with PANC-1 and in the assay on SiHa was at most 1000 nM throughout. Besides, the MIC with Priestia megaterium, against Bacillus subtilis [5], against Escherichia coli [6], against Micrococcus luteus and with Salmonella typhimurium was 15.6 µg/mL (≈ 25.3 µM) throughout.
Take `O=C(/C=C/c1ccc(Cl)cc1)n1nnnc1-c1ccccc1`: the zone of inhibition at 50 µg/mL in the assay on Candida albicans [7], in the assay with Staphylococcus aureus, in the assay on Aspergillus niger [8] and with Escherichia coli [9] was 8 to 15 mm in each case.
On to `CCOC(=O)C(C#N)C(c1cc2ccc(C)cc2n2nnnc12)P(=O)(OCC)OCC` (stereo unspecified), for which the MIC against Candida albicans [1], in the assay with Aspergillus niger [2], against Escherichia coli [3] and in the assay with Bacillus subtilis [4] was 10 to 20 µg/mL (≈ 22.5 to 44.9 µM) in each case.
`COc1ccc(/C=C/C(=O)n2nnnc2-c2ccccc2)cc1`: the zone of inhibition at 50 µg/mL in the assay on Candida albicans [7], in the assay on Staphylococcus aureus, with Aspergillus niger [8] and in the assay on Escherichia coli [9] was 8 to 15 mm each time.
As for `O=C(/C=C/c1ccc([N+](=O)[O-])cc1)n1nnnc1-c1ccccc1`, the zone of inhibition at 50 µg/mL with Candida albicans [7], in the assay on Staphylococcus aureus, in the assay with Aspergillus niger [8] and with Escherichia coli [9] was 8 to 15 mm in each case.
Regarding `O=C(/C=C/c1ccccc1Cl)n1nnnc1-c1ccccc1`, the zone of inhibition at 50 µg/mL in the assay on Candida albicans [7], with Staphylococcus aureus, in the assay on Aspergillus niger [8] and with Escherichia coli [9] was 8 to 15 mm throughout.
